Assay [1] relates to P. aeruginosa strain PA14 infection in Caenorhabditis elegans. Description: Liquid assay for PA14 infection of C. elegans. Format: in vivo. Here is the method:
A liquid assay for PA14 infection of C. elegans in a 96-well plate format was developed. In brief, temperature-sterile glp-4 and glp-4;sek-1 worms were synchronized according to standard protocols. L1 larvae were plated, incubated for 16 hours at 15° C., and then for an additional 48 hours at […], which brought them to a young adult stage. In parallel, PA14 bacteria were grown overnight prior to being plated on SK medium plates (see Tan et al., Proc. Natl. Acad. Sci., 96(2): 715-720). PA14-inoculated plates were incubated for 24 hours at 37° C. prior to an 18 hours incubation at 25° C. Subsequently, bacteria were removed from plates and resuspended in S Basal media (see Stiernagle, (2006) “Maintenance of C. elegans” WormBook, ed. The C. elegans. Research Community http://www.wormbook.org/). 96-well polystyrene plates were prepared with a medium containing either 20% SK and 80% S Basal or 50% SK and 50% S Basal, with a bacterial density of OD600=0.03. […] Dispensation of 25 young adult glp-4 or glp-4; sek-1 worms to each well using a COPAS BioSort robot brought the final total volume to […]. After worms were added, each plate was sealed with a gas permeable membrane and incubated for 48 hours at 25° C. […] Worms were stained for 18 hours at 20° C. and each well was photographed using bright-field and red fluorescence channels with a Molecular Devices Discovery-1 Microscope.

In the next assay the test system is PA14. Briefly: Growth of PA14 in presence of compound (data not shown). Format: cell-based, Pseudomonas aeruginosa. The note with it: 3.125 μg/mL.
The test system of assay [2] is C. elegans infected with E. faecalis. Briefly: Dose response time courses in the C. elegans-E. faecalis infection assay. Format: in vivo, Caenorhabditis elegans. The note with it: Effective Concentration: survival significantly different from mock-treated, p-value <0.05, logrank; read-out: EC. The method, then:
glp-4(bn2); sek-1 (km4) mutant worms were grown to gravid adult stage. 1,000 worms at the L1 stage were grown for 5.2 days at 15° C. on 9-cm plates of SK agar media spread with a lawn of E. coli strain HB101. Embryos from the gravid adults were isolated by a previously described hypochlorite method (see Tan et al., (1999) Proc. Natl. Acad. Sci. USA 96, 715-720) and hatched at 15° C. for 2 days. Approximately 4,500 of the Ll hatchlings were grown on each 9-cm plate of SK-NS agar (SK media with 62.5 U/ml nystatin and 100 μg/ml streptomycin) and with lawns of E. coli HB101. These worms were grown at 25° C. for 52 hours to generate sterile, young adults.
A culture of E. faecalis MMH594 was grown in BHI broth (BD Difco) with 80 μg/ml kanamycin at 37° C. for 6 hours and 100 μl of the culture were spread onto each 9-cm plate of BHI agar containing 80 μg/mlkanamycin. Lawns of E. faecalis were grown at 25° C. for 16 hours and transferred to 15° C. for 8 hours.
Sterile adult worms were resuspended in M9 buffer and washed twice with M9 in a 1:10 ratio to remove E. coli. 8,000 worms were pipetted onto each lawn of E. faecalis and incubated 15 hours at 15° C. After infection, the worms were resuspended in M9 and used as described below. 384-well plates (Corning #3712) were filled with 55 μl media (see below) using a Thermo Scientific MULTIDROP Combi reagent dispenser. 0.3 μl of a candidate compound in DSMO were pin transferred into each well using a CyBio CYBI-Well vario transfer system. The plates were agitated using an Eppendorf MIXMATE at 1,800 rpm for 15 seconds. Using the Union Biometrica Complex Object Parametric Analyzer and Sorter (COPAS) BIOSORT worm sorter according to manufacturer's protocols, 15 of the infected worms were transferred to each well in a total volume of approximately 15 μl. Total volume per well is 70 μl/well with a final composition of the media being 20% BHI, […], 80 μg/ml kanamycin, 62.5 U/ml nystatin, 1% DMSO, and 19% sheath solution (Union Biometrica Part #300-5101-000). Plates were vortexed for 5 seconds, centrifuged at 1000×g for 10 seconds, and sealed with gas permeable membranes (BREATHEASY Diversified). Plates were placed in a single layer on the top shelves in a 26.3° C. incubator at 85% relative humidity (RH) and incubated without agitation for 5 days.
The dose dependence of certain antimicrobial compounds identified by the assay above were studied. These compounds were purchased in a larger amount from commercial sources. For each of these compounds, an infection assay was performed essentially as described above at different concentrations except that SYTOX staining was not used. Instead, bright-field images of the wells were acquired at daily time points and scored manually for worm survival by analyzing worm body positioning. […] All compounds used in this assays were confirmed for their identity and purity by liquid chromatography/mass spectrometry.

`NNc1ccc2c(Cl)cc(Cl)c(O)c2n1` [Compound 11]: in assay [1] (3.125 μg/mL, glp-4 and glp-4;sek-1 worms, 48 hours), the “mortality of PA14-infected worms” value is reported as not above 30%. The “effect of increasing the dosage on efficacy” value in assay [1] (6.25 and 20 μg/mL versus 3.125 μg/mL) was “did not increase its efficacy”. Moreover, the “effect on PA14 (growth)” value with PA14 is on record as “unaffected”. In assay [2], the minimal effective concentration amounted to 0.2 µg/mL.

The values are drawn from US9241928B2, “Antimicrobial compounds” (The General Hospital Corporation, priority 2009, dated 2016).
